According to patent publication USRE34918E, “Azaazulene compounds which are useful as antiallergic and antiinflammatory agents” (Kaken Pharmaceutical Co., Ltd., priority 1988, dated 1995):
Converted amounts (≈) assume the structure as drawn.

Columns and labels:
Acute toxicity in mouse = assay type: in vivo; details: 2 weeks observation
Experimental: The test was carried out with the compounds obtained in Examples 5 and 9. Groups of 5 male ddy mice weighing 26 to 28 g were employed. The test compounds were suspended in a 0.5% CMC aqueous solution and the resulting suspension was administered orally in an amount of 500 for the compound obtained in Example 9, 1000 or 2000 mg/kg body weight. The survivors were kept under observation daily for 2 weeks. From the results shown in Table 6, the LD50 of the compounds obtained in Example 5 and 9 were estimated to be more than 2000 mg/kg. The other compounds of the present invention also had the same toxicity as the above compounds.

[1] = tested on: smooth musculus trachealis; assay: Relaxant activity of smooth musculus trachealis in guinea pig; parameters: species or system guinea pig (male Hartley); details: Cavia porcellus; tracheal chain strips, 37° C.; read-out: Concentration for 50% relaxation
Experimental: Male Hartley guinea pigs weighing 350 to 550 g were bleed to death, and immediately the tracheae were extirpated. According to the method of Takagi et al [cf. Chem. Pharm. Bull., 8, 716 (1958)], tracheal chain strips was prepared, and the sample was suspended on Magnus apparatus under addition of load of 0.5 g. The test was carried out at 37° C. of liquid temperature. After position of tonus was examined with histamine (10^-6 g/ml) and isoproterenol (10^-7 g/ml), the test compound dissolved in a mixture of dimethyl sulfoxide and physiological saline was added thereto, and the test compound was investigated with respect to the effect on smooth musculus trachealis. Theophylline was used as a positive comparative drug. The relaxation and the contraction of smooth musculus trachealis were recorded on servocorder (SR 6342: commercially available from Watanabe Instruments Corp.) by connecting Isotonic Transducer (TD-1125: commercially available from Nihon Kohden Kogyo Co., Ltd.) to a balancing box.

[2] = tested on: histamine release from rat mast cell; assay: Inhibitory activity against histamine release from rat mast cell; assay type: cell-based; details: 10 μg/ml, read-out: Inhibitory rate against histamine release
[3] = tested on: PCA (homologous passive cutaneous anaphylaxis) in rat; assay: Inhibitory activity against PCA in rat; assay type: in vivo, rat (male Slc: Wistar); details: Rattus norvegicus; 5 mg/kg oral, 1 hour before antigen challenge; read-out: Inhibition rate against PCA
Experimental: An anti-dinitrophenylated-ovalbumin (hereinafter referred to as "anti-DNP-OVA") rat antiserum having 800 of PCA titer in homologous passive cutaneous anaphylaxis reaction in rats for 48 hours, was diluted 200 times with physiological saline, and diluted antiserum was injected intradermally into back of groups of 5 male Slc: Wistar rats weighing 130-150 g in a volume of 50 μl/site to be passively sensitized. After 48 hours, 0.6 ml of 1% (w/v) Evans blue solution containing 1.5 mg of antigen DNP-OVA was administered intravenously into the tail. Thirty minutes later, the rats were bled to death and skin of the rats was removed. According to the method of Katayama et al [Microbiol. […] The test compound was suspended in 0.5% (w/v) aqueous solution of carboxymethylcellulose (hereinafter referred to as "CMC"), the suspension was administered orally in a ratio of 5 mg/kg 1 hour before challenging an antigen.
Inhibition rate against PCA was calculated according to the following equation. [formula] M: Amount of leaked pigment in antibody-sensitized site under administration of CMC without the test compound
S: Amount of leaked pigment in antibody-sensitized site under administration of the test compound in CMC
B: Amount of leaked pigment in antibody-nonsensitized site

CC(C)c1cccc2n(Cc3ccc(F)cc3)c(=O)c(-c3nnn[nH]3)c-2c1 [Example 9, 1-(4-Fluorobenzyl)-5-iso-propyl-3-(5-tetrazolyl)-1-azaazulane-2-one]
Mortality (Acute toxicity in mouse; 500 mg/kg p.o.): 0/5
Mortality (Acute toxicity in mouse; 1000 mg/kg p.o.): 0/5
Mortality (Acute toxicity in mouse; 2000 mg/kg p.o.): 0/5
LD50 at 336 h (Acute toxicity in mouse; mouse, in vivo, oral): > 2000 mg/kg
EC50 [1]: 8.6 µg/mL (≈ 23.7 µM)
inhibition at 10 µg/mL [2]: 99.8%
inhibition in vivo at 5 mg/kg [3]: 84.9 ± 2.2%
